Experiment: cn = amount concentration of the nth substance listed, in mol/dm3
Conditions: 101 kPa, Liquid, Direct current cell with electrodes

CCCCCCCCCCCC[N+](CCCC)(CCCC)CCCC.[Br-] [dodecyltributylammonium bromide] + O
electrical conductivity [S/m]
Conditions	288.15 K	293.15 K	298.15 K	303.15 K	308.15 K	313.15 K	318.15 K
c1 = 0.000658	0.005218	0.00579	0.00649	0.007326	0.00785	0.008542	0.00923
c1 = 0.001299	0.009805	0.01101	0.01226	0.0138	0.01502	0.01631	0.0177
c1 = 0.001923	0.01419	0.01604	0.0179	0.0201	0.0218	0.0238	0.0258
c1 = 0.002532	0.01845	0.0208	0.0233	0.0262	0.0283	0.0309	0.0336
c1 = 0.003125	0.0226	0.0254	0.0287	0.0319	0.0346	0.0378	0.0412
c1 = 0.003704	0.0265	0.03	0.0335	0.0374	0.0407	0.0445	0.0484
c1 = 0.004268	0.0303	0.0341	0.0383	0.0427	0.0465	0.0509	0.0551
c1 = 0.004819	0.034	0.0384	0.0429	0.0476	0.0517	0.0566	0.0619
c1 = 0.005357	0.0377	0.0423	0.0472	0.052	0.0567	0.0619	0.0672
c1 = 0.005882	0.041	0.0459	0.0508	0.0554	0.0599	0.0658	0.0712
c1 = 0.006395	0.0441	0.0487	0.0532	0.0578	0.0629	0.069	0.0752
c1 = 0.006896	0.0466	0.0509	0.0556	0.0601	0.0658	0.072	0.0785
c1 = 0.007386	0.0485	0.0524	0.0575	0.0626	0.0678	0.0747	0.0817
c1 = 0.007865	0.05	0.0542	0.059	0.0647	0.0706	0.0773	0.0845
c1 = 0.008333	0.0513	0.0554	0.061	0.0666	0.0728	0.0798	0.0874
c1 = 0.008791	0.0523	0.0568	0.0622	0.0685	0.0749	0.0822	0.09
c1 = 0.009239	0.0537	0.0582	0.0641	0.0703	0.077	0.0845	0.0926
c1 = 0.009677	0.0548	0.0598	0.0652	0.0721	0.0789	0.0867	0.0952
c1 = 0.01011	0.0556	0.061	0.0671	0.0737	0.0804	0.0889	0.0976
c1 = 0.01053	0.0572	0.0623	0.0686	0.0757	0.0829	0.0913	0.1003
c1 = 0.01094	0.0583	0.0636	0.0701	0.0774	0.0849	0.0935	0.1028
c1 = 0.01134	0.0594	0.0649	0.0716	0.0791	0.0868	0.0957	0.105
c1 = 0.01174	0.0605	0.0661	0.073	0.0807	0.0887	0.0978	0.108
c1 = 0.01212	0.0615	0.0673	0.0744	0.0824	0.0905	0.0998	0.11
c1 = 0.0125	0.0626	0.0685	0.0758	0.084	0.0923	0.1019	0.1122

From the NIST ThermoML archive (doi:10.1021/je100598x)
